Read-outs that look alike come from different tables or passages of the source.
Target: T1, HCV NS3/4A protease complex, BMS strain (UniProt P27958, species not given/STRAIN_BMS)
T1 construct: for H77 and J4L6S; fused on or other part: Three-lysine solubilizing tail at the end of NS4A, for the H77 and J4L6S constructs; Purification on Ni-NTA and the pET21b vector imply a His tag
Assay: FRET peptide assay to monitor HCV NS3/4A proteolytic activity (BMS strain)
Assay type: biochemical, HCV genotype 1a
From the text: HCV NS3 protease complexes, derived from the BMS strain, H77 strain or J4L6S strain, were generated, as described below. These purified recombinant proteins were generated for use in a homogeneous assay (see below) to provide an indication of how effective compounds of the present disclosure would be in inhibiting HCV NS3 proteolytic activity.
Serum from an HCV-infected patient was obtained from Dr. T. Wright, San Francisco Hospital. An engineered full-length cDNA (compliment deoxyribonucleic acid) template of the HCV genome (BMS strain) was constructed from DNA fragments obtained by reverse transcription-PCR (RT-PCR) of serum RNA (ribonucleic acid) and using primers selected on the basis of homology between other genotype 1a strains. From the determination of the entire genome sequence, a genotype 1a was assigned to the HCV isolate according to the classification of Simmonds et al. (See P Simmonds, K A Rose, S Graham, S W Chan, F McOmish, B C Dow, E A Follett, P L Yap and H Marsden, J. Clin. Microbiol., 31(6), 1493-1503 (1993)). […] The infectious clones, H77 (1a genotype) and J4L6S (1b genotype) were obtained from R. Purcell (NIH) and the sequences are published in Genbank (AAB67036, see Yanagi, M., Purcell, R. H., Emerson, S. U. and Bukh, J. Proc. Natl. Acad. Sci. U.S.A. 94(16), 8738-8743 (1997); AF054247, see Yanagi, M., St Claire, M., Shapiro, M., Emerson, S. U., Purcell, R. H. and Bukh, J, Virology 244 (1), 161-172. (1998)).
The H77 and J4L6S strains were used for production of recombinant NS3/4A protease complexes. DNA encoding the recombinant HCV NS3/4A protease complex (amino acids 1027 to 1711) for these strains were manipulated as described by P. Gallinari et al. (see Gallinari P, Paolini C, Brennan D, Nardi C, Steinkuhler C, De Francesco R. Biochemistry. 38(17):5620-32, (1999)). Briefly, a three-lysine solubilizing tail was added at the 3′-end of the NS4A coding region. The cysteine in the P1 position of the NS4A-NS4B cleavage site (amino acid 1711) was changed to a glycine to avoid the proteolytic cleavage of the lysine tag. Furthermore, a cysteine to serine mutation was introduced by PCR at amino acid position 1454 to prevent the autolytic cleavage in the NS3 helicase domain. The variant DNA fragment was cloned in the pET21b bacterial expression vector (Novagen) and the NS3/4A complex was expressed in Escherichia. coli strain BL21 (DE3) (Invitrogen) following the protocol described by P. Gallinari et al. (see Gallinari P, Brennan D, Nardi C, Brunetti M, Tomei L, Steinkuhler C, De Francesco R., J Virol. 72(8):6758-69 (1998)) with modifications. Briefly, the NS3/4A protease complex expression was induced with 0.5 millimolar (mM) Isopropyl β-D-1-thiogalactopyranoside (IPTG) for 22 hours (h) at 20° C. A typical fermentation (1 Liter (L)) yielded approximately 10 grams (g) of wet cell paste. The cells were resuspended in lysis buffer (10 mL/g) consisting of 25 mM N-(2-Hydroxyethyl)Piperazine-N′-(2-Ethane Sulfonic acid) (HEPES), pH 7.5, 20% glycerol, 500 mM Sodium Chloride (NaCl), 0.5% Triton X-100, 1 microgram/milliliter (“μg/mL”) lysozyme, 5 mM Magnesium Chloride (MgCl2), 1 μg/ml DnaseI, 5 mM β-Mercaptoethanol (βME), Protease inhibitor-Ethylenediamine Tetraacetic acid (EDTA) free (Roche), homogenized and incubated for 20 minutes (min) at 4° C. The homogenate was sonicated and clarified by ultra-centrifugation at 235000 g for 1 h at 4° C. Imidazole was added to the supernatant to a final concentration of 15 mM and the pH adjusted to 8.0. The crude protein extract was loaded on a Nickel-Nitrilotriacetic acid (Ni-NTA) column pre-equilibrated with buffer B (25 mM HEPES, pH 8.0, 20% glycerol, 500 mM NaCl, 0.5% Triton X-100, 15 mM imidazole, 5 mM βME). The sample was loaded at a flow rate of 1 mL/min. The column was washed with 15 column volumes of buffer C (same as buffer B except with 0.2% Triton X-100). The protein was eluted with 5 column volumes of buffer D (same as buffer C except with 200 mM Imidazole). […]

T1 sequence (P27958 1027-1657, change not shown, one chain of several): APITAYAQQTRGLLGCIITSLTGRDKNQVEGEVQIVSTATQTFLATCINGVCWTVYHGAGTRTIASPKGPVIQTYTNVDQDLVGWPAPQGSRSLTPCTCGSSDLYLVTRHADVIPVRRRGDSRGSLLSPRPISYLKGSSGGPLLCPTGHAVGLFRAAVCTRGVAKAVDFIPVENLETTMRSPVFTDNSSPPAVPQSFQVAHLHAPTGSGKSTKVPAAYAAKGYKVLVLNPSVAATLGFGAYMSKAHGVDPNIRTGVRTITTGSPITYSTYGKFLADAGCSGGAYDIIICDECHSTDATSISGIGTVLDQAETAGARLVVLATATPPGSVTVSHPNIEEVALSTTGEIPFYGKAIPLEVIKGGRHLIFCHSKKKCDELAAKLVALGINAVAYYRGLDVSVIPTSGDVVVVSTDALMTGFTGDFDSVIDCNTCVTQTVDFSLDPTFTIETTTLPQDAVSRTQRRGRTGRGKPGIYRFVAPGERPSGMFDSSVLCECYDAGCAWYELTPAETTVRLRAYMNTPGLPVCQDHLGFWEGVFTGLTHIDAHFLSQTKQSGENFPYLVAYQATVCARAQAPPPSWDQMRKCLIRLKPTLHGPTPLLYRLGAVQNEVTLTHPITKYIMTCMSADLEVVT

## COc1c(O[C@@H]2C[C@H]3C(=O)N[C@]4(C(=O)NS(=O)(=O)C5CC5)C[C@H]4/C=C\CCCCC[C@H](NC(=O)OC(C)(C)C)C(=O)N3C2)ccc2c(Cl)nccc12 [Compound 3]
BMS strain, read-out: IC50 against the NS3/4A BMS strain in the enzyme assay
  IC50: 2.8 nM
NS3/4A BMS strain, read-out: IC50 Activity Range
  IC50: < 100 nM

Source: patent publication US7741281B2, “Hepatitis C virus inhibitors” (Bristol-Myers Squibb Company, priority 2005, dated 2010)
